Drawing on patent US6759409B2, “Inhibitors of papilloma virus” (Boehringer Ingelheim (Canada) Ltd., priority 2000, dated 2004), this text covers IC50 for 7 compounds.

The target of the test is T1, HPV-11 E1-E2-DNA origin of replication complex (Human papillomavirus 11, UniProt P04015).
T1 construct: approximately 100-200 ng of purified E1
In words: E2-dependent E1 DNA binding assay (E1-E2 DNA assay). As to the method:
This particular assay determines the ability of a test compound to inhibit the activity (IC50) of HPV-11 DNA replication. More specifically, in the assay described herein, the inhibitory activity of the test compound is evaluated based on its ability to interfere with the E1-E2-DNA origin of replication interaction, thereby inhibiting initiation of viral DNA replication.
This assay was modeled on a similar assay for SV40 T Antigen described by McKay (J. Mol. Biol., 1981,145:471). A 400 bp radiolabeled DNA probe, containing the HPV-11 origin of replication (Chiang et al., 1992, Proc. Natl. Acad. Sci. USA 89:5799) was produced by pcr, using plasmid pBluescript™ SK encoding the origin (nucleotides 7886-61 of the HPV-11 genome in unique BAMH1 site) as template and primers flanking the origin. Radiolabel was incorporated as [^33P]dCTP. Binding assay buffer consisted of: 20 mM Tris pH 7.6, 100 mM NaCl, 1 mM DTT, 1 mM EDTA.
Other reagents used were protein A-SPA beads (type II, Amersham) and K72 rabbit polyclonal antiserum, raised against a peptide corresponding to the C-terminal 14 amino acids of HPV-11 E1. Following the protocol from Amersham, one bottle of beads was mixed with 25 mL of binding assay buffer. For the assay, a saturating amount of K72 antiserum was added to the beads and the mixture was incubated for 1 h, washed with one volume of binding assay buffer, and then resuspended in the same volume of fresh binding assay buffer. Binding reactions contained 8 ng of E2, approximately 100-200 ng of purified E1, and 0.4 ng of radiolabeled probe in a total of 80 μL of binding assay buffer. After 1 h at room temperature, 25 μL of K72 antibody-SPA bead suspension was added to with the binding reaction and mixed. After an additional hour of incubation at room temperature, the reactions were centrifuged briefly to pellet the beads and the extent of complex formation was determined by scintillation counting on a Packard TopCount™. Typically, the signal for reactions containing E1 and E2 was 20-30 fold higher than the background observed when either E1, E2, or both was omitted.

[1] abbreviates: Table 1A, enantiomerically pure cis/cis isomer (form 1).
Where [2] appears, read: Table 1, racemic cis/cis isomer (form 1).

T1 sequence (P04015 whole entry, one chain of several): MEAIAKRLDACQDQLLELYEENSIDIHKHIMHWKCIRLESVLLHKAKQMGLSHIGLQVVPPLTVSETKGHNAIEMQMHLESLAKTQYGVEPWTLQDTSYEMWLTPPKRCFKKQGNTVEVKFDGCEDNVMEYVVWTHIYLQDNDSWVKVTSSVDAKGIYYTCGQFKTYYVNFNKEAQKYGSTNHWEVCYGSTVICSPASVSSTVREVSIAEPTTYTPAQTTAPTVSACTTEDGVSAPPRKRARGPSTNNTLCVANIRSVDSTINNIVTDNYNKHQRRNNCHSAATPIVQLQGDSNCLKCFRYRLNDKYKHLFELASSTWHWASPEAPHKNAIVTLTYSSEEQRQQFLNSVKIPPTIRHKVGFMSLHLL

The IC50 is the concentration needed to halve the response being measured. Low readings indicate greater potency, high ones weaker potency. `Cc1ccc2c(c1)C(=O)C1(OC(c3ccc(Cl)c(Cl)c3)C(C(=O)Nc3ccc(-c4csnn4)cc3)C1C(=O)O)C2=O` (single isomer, unassigned) [A1007] came in with an IC50 under setting [1] of 0.5 to 5 µM.

Consider `CC(=O)c1ccc(NC(=O)C2C(/C=C/c3ccccc3)OC3(C(=O)c4ccccc4C3=O)C2C(=O)O)cc1` (stereo not shown) [compound 4005], for which the concentration for half-maximal inhibition (IC50) (Table 4, racemic cis/cis isomer (form 1)) was 5 to 50 µM.

Regarding `CC(=O)c1ccc(NC(=O)C2C(c3ccc(Cl)c(Cl)c3)OC3(C(=O)c4ccc5ccccc5c4C3=O)C2C(=O)O)cc1` (stereo not shown) [compound 1095], the IC50 under setting [2] fell in the range of 5 to 50 µM.

`CCCCNC(=O)C1C(c2ccc(Cl)c(Cl)c2)OC2(C(=O)c3ccccc3C2=O)C1C(=O)O` (stereo not shown) [compound 1050] showed an IC50 under setting [2] of 0.5 to 5 µM.

Take `CC(=O)c1ccc(NC(=O)C2C(c3ccc(Cl)c(Cl)c3)OC3(C(=O)c4ccc5ccccc5c4C3=O)C2C(=O)O)cc1` (stereo not shown) [compound 1091]: under setting [2], the half-inhibitory concentration (IC50) was 5 to 50 µM.

`Cc1ccc2c(c1)C(=O)C1(OC(c3ccc(Cl)c(Cl)c3)C(C(=O)Nc3ccc(-c4csnn4)cc3)C1C(=O)O)C2=O` (single isomer, unassigned) [A1008] came in with a concentration for half-maximal inhibition (IC50) under setting [1] of under 0.5 µM.

Regarding `CC(=O)c1ccc(NC(=O)C2C(c3ccc(Cl)c(Cl)c3)OC3(C(=O)c4cc5ccccc5cc4C3=O)C2C(=O)O)cc1` (stereo not shown) [compound 1090], the IC50 under setting [2] fell in the range of 5 to 50 µM.
